For 17 molecules, inhibition results are on record in ChEMBL document CHEMBL1649420, “Identifying chelators for metalloprotein inhibitors using a fragment-based approach” (J Med Chem, 2011).

Test [1] deals with T1, Lethal factor (Bacillus anthracis) (UniProt P15917).
T1 sequence (whole entry): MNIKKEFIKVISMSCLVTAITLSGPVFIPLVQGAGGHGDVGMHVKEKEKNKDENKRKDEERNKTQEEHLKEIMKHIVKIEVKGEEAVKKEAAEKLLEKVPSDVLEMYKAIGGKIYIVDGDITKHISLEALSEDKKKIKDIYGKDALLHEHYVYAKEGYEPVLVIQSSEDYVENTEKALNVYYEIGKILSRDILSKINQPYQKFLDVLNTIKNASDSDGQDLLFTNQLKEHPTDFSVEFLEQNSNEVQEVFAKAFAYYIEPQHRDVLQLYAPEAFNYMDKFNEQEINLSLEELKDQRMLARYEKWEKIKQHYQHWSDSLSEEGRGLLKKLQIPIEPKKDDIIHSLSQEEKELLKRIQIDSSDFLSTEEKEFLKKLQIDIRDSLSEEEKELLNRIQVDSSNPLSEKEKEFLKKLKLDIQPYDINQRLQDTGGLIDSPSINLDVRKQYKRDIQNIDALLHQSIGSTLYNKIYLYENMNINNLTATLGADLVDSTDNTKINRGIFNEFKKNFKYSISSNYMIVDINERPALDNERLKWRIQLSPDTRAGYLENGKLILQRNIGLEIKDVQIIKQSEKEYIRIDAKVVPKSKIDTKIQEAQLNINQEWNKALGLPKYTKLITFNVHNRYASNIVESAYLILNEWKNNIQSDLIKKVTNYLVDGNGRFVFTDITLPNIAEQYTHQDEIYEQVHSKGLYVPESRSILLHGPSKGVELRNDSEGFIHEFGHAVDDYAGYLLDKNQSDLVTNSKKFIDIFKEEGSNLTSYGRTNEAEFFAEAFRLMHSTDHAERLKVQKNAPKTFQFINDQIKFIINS
The following applies: at 1 mM.

For test [2], the target named is Stromelysin-1 (Homo sapiens) (UniProt P08254). The following applies: at 1 mM.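 Also: recombinant enzyme, inhibition read after a 30 min incubation.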
The target in test [3] is 72 kDa type IV collagenase (Homo sapiens, UniProt P08253). The following applies: at 1 mM.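 Also: recombinant human enzyme, inhibition read after a 30 min incubation.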
Test [4] concerns the target T2, Tyrosinase (Agaricus bisporus) (UniProt O42713).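 Also: inhibition measured at 10 min.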
T2 sequence (whole entry): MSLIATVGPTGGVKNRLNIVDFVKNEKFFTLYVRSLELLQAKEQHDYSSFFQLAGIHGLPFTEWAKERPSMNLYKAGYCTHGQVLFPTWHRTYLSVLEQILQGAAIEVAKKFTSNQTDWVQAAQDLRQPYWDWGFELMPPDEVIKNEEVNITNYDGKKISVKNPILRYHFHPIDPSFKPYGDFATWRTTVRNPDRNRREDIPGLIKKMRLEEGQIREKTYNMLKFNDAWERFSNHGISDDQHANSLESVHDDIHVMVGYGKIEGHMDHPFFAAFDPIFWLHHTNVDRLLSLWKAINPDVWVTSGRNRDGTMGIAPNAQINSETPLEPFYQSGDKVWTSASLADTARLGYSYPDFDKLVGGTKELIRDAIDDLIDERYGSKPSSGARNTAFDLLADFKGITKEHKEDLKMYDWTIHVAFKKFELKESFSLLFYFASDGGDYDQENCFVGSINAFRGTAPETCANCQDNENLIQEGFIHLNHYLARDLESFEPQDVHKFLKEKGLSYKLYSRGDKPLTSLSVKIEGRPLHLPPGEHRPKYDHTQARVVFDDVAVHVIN
The following applies: at 1 mM.

For test [5], the target named is T3, Interstitial collagenase (Homo sapiens) (UniProt P03956).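 Also: recombinant human enzyme, with inhibition measured after 30 min.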
T3 sequence (whole entry): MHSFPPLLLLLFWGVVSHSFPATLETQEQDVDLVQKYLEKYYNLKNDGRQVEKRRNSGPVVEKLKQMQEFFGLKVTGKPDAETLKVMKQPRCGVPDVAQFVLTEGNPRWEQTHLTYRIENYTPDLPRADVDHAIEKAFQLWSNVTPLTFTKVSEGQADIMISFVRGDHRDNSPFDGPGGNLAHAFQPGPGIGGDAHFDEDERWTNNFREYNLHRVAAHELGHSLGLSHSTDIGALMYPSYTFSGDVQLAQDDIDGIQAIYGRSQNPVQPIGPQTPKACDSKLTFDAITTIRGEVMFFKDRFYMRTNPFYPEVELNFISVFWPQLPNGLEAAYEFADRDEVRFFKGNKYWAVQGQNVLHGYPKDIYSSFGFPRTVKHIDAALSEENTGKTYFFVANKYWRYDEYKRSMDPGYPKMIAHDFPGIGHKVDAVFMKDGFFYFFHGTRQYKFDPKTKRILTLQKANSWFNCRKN
The following applies: at 1 mM.

In test [6] the target is Matrix metalloproteinase-9 (Homo sapiens) (UniProt P14780). The following applies: at 1 mM.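 Also: recombinant human MMP9, activity read after 30 min.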
The target of test [7] is Neutrophil collagenase (Homo sapiens) (UniProt P22894). The following applies: at 1 mM.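 Also: recombinant human MMP8 enzyme, percent inhibition read after 30 min.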
In test [8] the target is T4, Polyunsaturated fatty acid 5-lipoxygenase (Homo sapiens) (UniProt P09917).
T4 sequence (whole entry): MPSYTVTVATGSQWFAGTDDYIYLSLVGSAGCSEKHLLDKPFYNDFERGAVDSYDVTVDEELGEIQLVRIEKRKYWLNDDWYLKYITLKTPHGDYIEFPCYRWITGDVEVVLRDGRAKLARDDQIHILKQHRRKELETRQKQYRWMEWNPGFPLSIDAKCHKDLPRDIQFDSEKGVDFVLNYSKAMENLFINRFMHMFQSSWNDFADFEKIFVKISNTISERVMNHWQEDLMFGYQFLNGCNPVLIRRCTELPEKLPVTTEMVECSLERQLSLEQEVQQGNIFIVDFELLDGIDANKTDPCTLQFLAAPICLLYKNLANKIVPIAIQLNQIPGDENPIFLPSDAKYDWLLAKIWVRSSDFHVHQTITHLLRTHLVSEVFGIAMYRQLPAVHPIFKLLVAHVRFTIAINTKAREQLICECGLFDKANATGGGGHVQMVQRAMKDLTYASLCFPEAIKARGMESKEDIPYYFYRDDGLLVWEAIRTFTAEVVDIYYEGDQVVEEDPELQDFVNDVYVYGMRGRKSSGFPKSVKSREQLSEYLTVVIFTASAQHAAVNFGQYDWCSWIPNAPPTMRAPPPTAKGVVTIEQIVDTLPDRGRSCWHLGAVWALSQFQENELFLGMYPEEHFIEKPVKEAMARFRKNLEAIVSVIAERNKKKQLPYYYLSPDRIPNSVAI
Description: Inhibition of human recombinant 5-lipoxygenase at 1 mM after 10 mins by fluorescence assay.

Stromelysin-1 (Homo sapiens), sequence (P08254 100-477 limits assumed): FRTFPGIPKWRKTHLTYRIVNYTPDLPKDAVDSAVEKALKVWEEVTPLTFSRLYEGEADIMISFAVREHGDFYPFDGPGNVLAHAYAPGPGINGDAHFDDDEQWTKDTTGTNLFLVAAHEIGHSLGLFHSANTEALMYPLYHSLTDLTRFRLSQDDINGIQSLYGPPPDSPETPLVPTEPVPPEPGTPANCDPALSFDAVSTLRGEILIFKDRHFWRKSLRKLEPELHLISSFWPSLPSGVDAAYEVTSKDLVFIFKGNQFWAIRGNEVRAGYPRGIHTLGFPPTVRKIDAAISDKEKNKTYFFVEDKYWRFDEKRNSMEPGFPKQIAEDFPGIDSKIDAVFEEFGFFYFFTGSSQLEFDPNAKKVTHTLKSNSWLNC
Neutrophil collagenase (Homo sapiens), sequence (P22894 101-467 limits assumed): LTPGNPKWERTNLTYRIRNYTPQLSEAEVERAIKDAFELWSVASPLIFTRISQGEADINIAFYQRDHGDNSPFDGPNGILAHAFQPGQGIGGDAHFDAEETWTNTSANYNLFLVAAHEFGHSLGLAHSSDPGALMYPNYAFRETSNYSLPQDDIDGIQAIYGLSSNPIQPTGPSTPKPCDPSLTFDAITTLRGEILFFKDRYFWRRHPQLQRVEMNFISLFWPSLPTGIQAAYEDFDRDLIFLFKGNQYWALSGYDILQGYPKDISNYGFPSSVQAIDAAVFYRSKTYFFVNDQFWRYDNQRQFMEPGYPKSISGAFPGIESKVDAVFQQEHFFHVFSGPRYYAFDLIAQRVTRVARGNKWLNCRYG
72 kDa type IV collagenase, sequence (P08253 110-660 limits assumed): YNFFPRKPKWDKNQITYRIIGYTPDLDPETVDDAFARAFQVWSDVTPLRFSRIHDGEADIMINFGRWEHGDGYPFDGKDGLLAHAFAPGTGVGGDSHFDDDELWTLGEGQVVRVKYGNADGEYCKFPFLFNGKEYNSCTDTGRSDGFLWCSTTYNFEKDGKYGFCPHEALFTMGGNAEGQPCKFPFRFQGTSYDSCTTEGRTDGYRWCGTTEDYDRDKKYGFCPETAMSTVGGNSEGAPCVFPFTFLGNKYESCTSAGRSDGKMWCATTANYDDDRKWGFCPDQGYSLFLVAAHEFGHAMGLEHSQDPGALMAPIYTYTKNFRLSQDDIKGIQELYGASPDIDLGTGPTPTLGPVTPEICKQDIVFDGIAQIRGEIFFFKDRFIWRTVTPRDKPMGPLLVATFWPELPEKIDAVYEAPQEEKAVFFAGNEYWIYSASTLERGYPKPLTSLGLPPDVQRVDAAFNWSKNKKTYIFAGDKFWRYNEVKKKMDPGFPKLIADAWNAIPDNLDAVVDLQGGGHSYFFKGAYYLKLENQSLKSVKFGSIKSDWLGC
Matrix metalloproteinase-9 (Homo sapiens), sequence (P14780 whole entry): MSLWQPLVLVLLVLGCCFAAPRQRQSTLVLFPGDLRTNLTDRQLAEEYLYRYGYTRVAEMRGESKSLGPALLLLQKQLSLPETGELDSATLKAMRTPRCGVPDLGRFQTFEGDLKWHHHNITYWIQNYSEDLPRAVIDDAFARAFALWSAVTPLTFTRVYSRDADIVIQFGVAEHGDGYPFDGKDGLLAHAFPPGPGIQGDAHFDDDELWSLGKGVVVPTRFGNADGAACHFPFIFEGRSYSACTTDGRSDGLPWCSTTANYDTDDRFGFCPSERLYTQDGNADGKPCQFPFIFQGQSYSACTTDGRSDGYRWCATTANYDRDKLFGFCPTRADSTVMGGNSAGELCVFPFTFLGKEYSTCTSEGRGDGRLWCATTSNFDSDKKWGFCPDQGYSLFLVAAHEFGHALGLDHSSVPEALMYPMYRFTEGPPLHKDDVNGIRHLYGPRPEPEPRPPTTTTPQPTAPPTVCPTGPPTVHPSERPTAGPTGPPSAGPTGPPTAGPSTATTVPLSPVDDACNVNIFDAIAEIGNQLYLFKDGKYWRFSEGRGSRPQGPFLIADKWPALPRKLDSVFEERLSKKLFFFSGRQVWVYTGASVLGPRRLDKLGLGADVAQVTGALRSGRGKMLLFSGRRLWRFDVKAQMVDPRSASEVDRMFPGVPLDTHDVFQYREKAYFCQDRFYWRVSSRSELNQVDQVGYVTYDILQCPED

One may read the inhibition as the drop in the measured response relative to a control, in per cent. On to `O=c1cccccc1O` [TROPOLONE], for which the inhibition in test [1] turned out to be 55%; in test [2], 95%; in test [3] it was 89%; in test [4] it was 90%; in test [5] it was 100%; in test [6], 91%. Besides, the figures for the inhibition in test [7] and in test [8] were 100% and -3%, respectively.

On to `Cc1cc(O)nc(C)n1`, for which the inhibition in test [1] is 18%; in test [2] it was 6%; in test [3] it was 2%; in test [4], -10%; in test [5] it was 10%; in test [6], 1%. For the same molecule, the inhibition in test [7] worked out at 11%; in test [8], 26%.

For the molecule `O=C(O)c1nccc2ccccc12`, the inhibition in test [1] was found to be 31%; in test [2], 67%; in test [3], 42%; in test [4], 72%; in test [5], 32%; in test [6], 26%. Further, the values for the inhibition in test [7] and in test [8] were 13% and 18%, respectively.

For the molecule `O=C(O)c1cccc(C(=O)O)n1`, the inhibition was 83% in test [1]; 54% in test [2]; -6% in test [3]; 99% in test [4]; 7% in test [5]; -7% in test [6]. The inhibition in test [7] was 17%; in test [8] it was 31%.

Regarding `Cc1cc(=O)c(O)co1`, the inhibition in test [1] was 22%; in test [2], 29%; in test [3], 37%; in test [4], 86%; in test [5], 37%; in test [6], 31%. Moreover, the inhibition was determined as 31% in test [7] and 80% in test [8].

As to `O=C(O)c1cccc(O)c1O`, the inhibition in test [1] is 9%; in test [2] it was -1%; in test [3], -1%; in test [4], 88%; in test [5], 17%; in test [6], 11%. For the same molecule, the values for the inhibition in test [7] and in test [8] were 10% and 80%, respectively.

As for `Cc1cc(=O)c(O)c(CCl)o1`, the inhibition in test [1] worked out at 21%; in test [2], 59%; in test [3] it was 44%; in test [4], 96%; in test [5], 53%; in test [6], 41%. Further, the inhibition in test [7] was determined as 47%; in test [8], 72%.

In the case of `O=C(O)c1ccccc1O`, the inhibition in test [1] was 6%; in test [2], -2%; in test [3], 12%; in test [4] it was 97%; in test [5] it was -1%; in test [6], 12%. Moreover, the inhibition in test [7] amounted to 14%; in test [8], 20%.

Regarding `O=C(O)c1ncccc1O`, the inhibition in test [1] turned out to be 43%; in test [2], 56%; in test [3], 58%; in test [4], 87%; in test [5], 55%; in test [6], 19%. Besides, the inhibition worked out at 56% in test [7] and 17% in test [8].

Take `O=C(O)c1ccc(F)cc1O`: the inhibition in test [1] is 17%; in test [2] it was -2%; in test [3] it was -8%; in test [4] it was 97%; in test [5], 14%; in test [6] it was 5%. The results for the inhibition in test [7] and in test [8] were 4% and 31%, respectively.

Take `O=C(O)c1ccc(C(=O)O)nc1`: the inhibition in test [1] was 18%; in test [2] it was 91%; in test [3] it was -5%; in test [4], 98%; in test [5], 0%; in test [6], -2%. Further, the inhibition was -1% in test [7] and 31% in test [8].

With `Cc1cc(O)nc(O)n1`, the inhibition was 8% in test [1]; 7% in test [2]; -7% in test [3]; -4% in test [4]; 13% in test [5]; 1% in test [6]. Further, the figures for the inhibition in test [7] and in test [8] were 11% and 24%, respectively.

For `c1ccc(CNCc2ccccn2)nc1`, the inhibition in test [1] was found to be 41%; in test [2], 93%; in test [3], 100%; in test [4], 69%; in test [5] it was 73%; in test [6] it was 84%. In addition, the values for the inhibition in test [7] and in test [8] were 100% and 29%, respectively.

Regarding `O=C(O)c1cc(F)ccc1O`, the inhibition is 16% in test [1]; -2% in test [2]; -2% in test [3]; 98% in test [4]; -7% in test [5]; 21% in test [6]. In addition, the figures for the inhibition in test [7] and in test [8] were -1% and 49%, respectively.

Take `Nc1cc(=O)nc(N)[nH]1`: the inhibition in test [1] was found to be 34%; in test [2], 14%; in test [3] it was 6%; in test [4], 18%; in test [5], 3%; in test [6], 2%. In addition, the figures for the inhibition in test [7] and in test [8] were 4% and 65%, respectively.

Turning to `Cc1occ(O)c(=O)c1C(=O)O`, the inhibition stood at 45% in test [1]; 80% in test [2]; 56% in test [3]; 96% in test [4]; 60% in test [5]; 51% in test [6]. Further, the inhibition was determined as 55% in test [7] and 80% in test [8].

For the molecule `CC(=O)C(C)C(C)=O`, the inhibition in test [1] is -7%; in test [2], -1%; in test [3], -3%; in test [4], 67%; in test [5] it was 10%; in test [6], -4%. The values for the inhibition in test [7] and in test [8] were 3% and 64%, respectively.
